Results taken from patent US6103888A, “Mammalian cationic proteins having lipopolysaccharide binding and anti-coagulant activity” (priority 1999, dated 2000).

What was measured:
ddY mice = test: Tissue factor lethality model; assay type: in vivo; settings: for Survival (%): Tissue factor 1.0 mg/mouse IV
Description: Tissue factor lethality model. Reference tissue factor (simplastin, 1 mg/mouse) was IV injected into ddY mice (male, 20-week-old, 38-45 g) incubated with or without peptide.
^a Tissue factor (Simplastin, 10 mg/ml was mixed with equal volume of
synthetic peptide 100 μg/ml or 50 μg/ml and 0.2 ml of the mixture
injected IV. ddY mice (20 weeks, 38-45 gm).

[1] = system: thioglycolate elicited murine peritoneal exudate cells; test: RNI generation by thioglycolate elicited peritoneal exudate cells; assay type: cell-based; settings: for RNI: RNIP 50 nm
Description: From the sequence of the CAP18 cDNA, it was apparent that the putative N-terminal peptide of CAP18 was in fact an internal fragment of the CAP18 protein. We therefore tried to reconfirm the original protein sequence. Neutrophil-derived heparin bound cationic proteins were prepared as described above and applied to a C18 reverse phase HPLC (FIG. 1). We sequenced the major peaks. Peaks at fractions 14.5 and 15.2 correspond to defensins MCP1 and MCP2 (Territo et al. (1989) J. Clin. Invest. 84:2017-2019), respectively. Fraction 25.8 is macrophage related protein 14 (MRP14) (Odink et al. (1987) Nature 330:80-82). The fraction at 20.3 minutes corresponds to a fragment of CAP18 of approximately 4-5 kD. […] The murine macrophage cell line RAW 264.7 (obtained from ATCC) and thioglycollate-elicited murine peritoneal exudate cells are used to produce RNI. Cells are cultured at 1×10^6 /ml. in RPMI-1640 +2.5% FCS in 24 well plates in the presence or absence of different concentrations of LPS or murine rlFNγ. After 24 hr. incubation at 37° C., the cell free supernatant is collected and tested for the presence of RNI. Accumulation of nitrite in the medium is measured by a calorimetric assay based on the Griess reaction (Green et al. (1982) Anal. Biochem. 126:11) using sodium nitrite as standards. Sample (50 μl) is mixed with 50 μl of Griess reagent (1% sulfanilamide, 0.1% naphthalene diamine dihydrochloride, 2.5% H3 PO4) and after 10 min. at room temperature absorbance is read at 570 nm.

[2] = system: Staphylococcus aureus, coagulase positive; test: Bacterial proliferation, 3H-thymidine incorporation assay; assay type: cell-based
Description: (§1) Bacteria were grown in trypticase broth overnight.
(§2) To corroborate the anti-bacterial activity shown in the CFU assays, inhibition of proliferation of bacteria was tested directly using a ^3 H-thymidine incorporation assay. […] In summary although there is some strain to strain variation in the IC50, all of the Gram-negativestrains tested in two different types of assays were sensitive to these anti-microbial peptides.

E. coli (HB101) = test: as above; assay type: cell-based; settings: for Percent inhibition of proliferation: E. coli (HB101)
Description: as §1, §2

Pseudomonas apacia = test: as above; assay type: cell-based
Description: as §1, §2

Pseudomonas aeruginosa = test: as above; assay type: cell-based
Description: as §1, §2

Streptococcus pyogenes = test: as above; assay type: cell-based
Description: as §1, §2

Streptococcus pneumoniae = test: as above; assay type: cell-based
Description: as §1, §2

Klebsiella pneumoniae = test: as above; assay type: cell-based
Description: as §1, §2

factor X = molecular target: T1, factor X (Homo sapiens, UniProt P00742); test: Factor X activation by tissue factor and factor VII, synthetic substrate S-2222; assay type: biochemical; settings: synthetic substrate; listed as 197
T1 construct: purchased Sigma Chemical Co., St. Louis, Mo
Description: Factor Xa activity using synthetic substrate. A reaction mixture of factor VII (1 unit/ml, 200 μl), factor X (1 unit/ml, 200 μl), tissue factor (2.5 mg/ml, 50 μl), 25 mM-CaCl2 (50 μl) and 50 μl of several concentration of peptide was incubated at 37° C. for 10 min. To 200 Al of the reaction mixture, 60 μl of 4 mM S-2222, a synthetic substrate for factor Xa, and 340 μl of Tris-HCl buffer, pH 8.2, was added and further incubated for 15 min. The reaction was stopped by adding 60 μl of 50% acetic acid, and OD for p-nitroaniline was read at 405 nm.

human monocytes = test: TNF release from LPS and IFNγ stimulated monocytes; assay type: cell-based
Human plasma = test: Prothrombin time (PT); assay type: biochemical
Description: Prothrombin time (PT). Human plasma (100 μl) was incubated with 100 μl of each peptide at 37° C. for 3 min., then 100 μl of tissue factor (250 μg/ml) CaCl2 was added and clotting time was measured.

T1 sequence (P00742 183-488): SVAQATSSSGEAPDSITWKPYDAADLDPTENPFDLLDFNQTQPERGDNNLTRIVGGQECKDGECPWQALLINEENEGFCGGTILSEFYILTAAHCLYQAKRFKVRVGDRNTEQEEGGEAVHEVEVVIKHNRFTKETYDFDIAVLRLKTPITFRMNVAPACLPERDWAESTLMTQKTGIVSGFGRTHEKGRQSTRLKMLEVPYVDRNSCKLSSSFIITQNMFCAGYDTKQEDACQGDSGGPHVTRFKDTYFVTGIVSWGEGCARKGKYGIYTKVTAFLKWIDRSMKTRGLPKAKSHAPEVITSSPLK
T1 sequence (P00742 41-179): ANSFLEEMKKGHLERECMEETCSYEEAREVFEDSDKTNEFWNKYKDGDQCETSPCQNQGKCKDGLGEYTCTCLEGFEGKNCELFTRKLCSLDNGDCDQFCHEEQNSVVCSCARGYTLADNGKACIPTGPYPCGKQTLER

## RNIP: rabbit reactive nitrogen inhibitory protein, amino acids 135-171 of SEQ ID NO:4; purified from granulocytes (Tables 1-3) or synthetic (#197) (GLRKRLRKFRNKIKEKLKKIGQKIQGLLPKLAPRTDY)
ddY mice; Peptide #197 5 μg/mouse
  Survival (%): 43%
ddY mice; Peptide #197 10 μg/mouse, p < 0.05 vs tissue factor control
  Survival (%): 57%
ddY mice; tissue factor IV (Simplastin, 1 mg/mouse)
  reduction of mortality: 57%
[1]; IFNγ 500 U/ml, without RNIP 4.0 ± 0.8
  RNI: 1.1 µM
[1]; IFNγ stimulated, read-out: IC50 for inhibition of gamma interferon stimulated nitrogen radical release
  IC50: < 50 nM
[1]; LPS + IFNγ 1 ng + 500 U/ml, without RNIP 26 ± 0.6
  RNI: 14 ± 0.7 µM
[2]; RNIP 0.6 μg/ml
  Percent inhibition of proliferation: 23%
[2]; RNIP 1.25 μg/ml
  Percent inhibition of proliferation: 57%
[2]; RNIP 2.5 μg/ml
  Percent inhibition of proliferation: 72%
[2]; RNIP 5.0 μg/ml
  Percent inhibition of proliferation: 83%
E. coli (HB101); RNIP 0.6 μg/ml
  Percent inhibition of proliferation: 81%
E. coli (HB101); RNIP 1.25 μg/ml
  Percent inhibition of proliferation: 88%
E. coli (HB101); RNIP 2.5 μg/ml
  Percent inhibition of proliferation: 99%
E. coli (HB101); RNIP 5.0 μg/ml
  Percent inhibition of proliferation: 99%
E. coli (HB101); RNIP 2.5 μg/ml, FCS concentration 0 %
  Inhibition (%) of E. coli (HB101) proliferation: 94 ± 10.3%
E. coli (HB101); RNIP 2.5 μg/ml, FCS concentration 1 %
  Inhibition (%) of E. coli (HB101) proliferation: 91 ± 10.9%
E. coli (HB101); RNIP 2.5 μg/ml, FCS concentration 5 %
  Inhibition (%) of E. coli (HB101) proliferation: 87 ± 3.1%
E. coli (HB101); RNIP 2.5 μg/ml, FCS concentration 10 %
  Inhibition (%) of E. coli (HB101) proliferation: 78 ± 5.5%
Pseudomonas apacia; RNIP 0.6 μg/ml
  Percent inhibition of proliferation: 81%
Pseudomonas apacia; RNIP 1.25 μg/ml
  Percent inhibition of proliferation: 80%
Pseudomonas apacia; RNIP 2.5 μg/ml
  Percent inhibition of proliferation: 99%
Pseudomonas apacia; RNIP 5.0 μg/ml
  Percent inhibition of proliferation: 99%
Pseudomonas aeruginosa; RNIP 0.6 μg/ml
  Percent inhibition of proliferation: 75%
Pseudomonas aeruginosa; RNIP 1.25 μg/ml
  Percent inhibition of proliferation: 82%
Pseudomonas aeruginosa; RNIP 2.5 μg/ml
  Percent inhibition of proliferation: 96%
Pseudomonas aeruginosa; RNIP 5.0 μg/ml
  Percent inhibition of proliferation: 99%
Streptococcus pyogenes; RNIP 0.6 μg/ml
  Percent inhibition of proliferation: 74%
Streptococcus pyogenes; RNIP 1.25 μg/ml
  Percent inhibition of proliferation: 79%
Streptococcus pyogenes; RNIP 2.5 μg/ml
  Percent inhibition of proliferation: 90%
Streptococcus pyogenes; RNIP 5.0 μg/ml
  Percent inhibition of proliferation: 96%
Streptococcus pneumoniae; RNIP 0.6 μg/ml
  Percent inhibition of proliferation: 31%
Streptococcus pneumoniae; RNIP 1.25 μg/ml
  Percent inhibition of proliferation: 47%
Streptococcus pneumoniae; RNIP 2.5 μg/ml
  Percent inhibition of proliferation: 68%
Streptococcus pneumoniae; RNIP 5.0 μg/ml
  Percent inhibition of proliferation: 93%
Klebsiella pneumoniae; RNIP 0.6 μg/ml
  Percent inhibition of proliferation: 4%
Klebsiella pneumoniae; RNIP 1.25 μg/ml
  Percent inhibition of proliferation: 14%
Klebsiella pneumoniae; RNIP 2.5 μg/ml
  Percent inhibition of proliferation: 17%
Klebsiella pneumoniae; RNIP 5.0 μg/ml
  Percent inhibition of proliferation: 60%
Factor X
  IC50, Tissue factor VII, X to Xa: 0.3 to 0.7 µg/mL
Human monocytes; Human IFNγ (100 U), CAP (1:1), stimulus alone 2.0
  TNF: 0.27 ng/mL
Human monocytes; Human IFNγ (100 U), CAP (1:10), stimulus alone 2.0
  TNF: 0.35 ng/mL
Human monocytes; Human IFNγ (100 U), CAP (1:100), stimulus alone 2.0
  TNF: 0.35 ng/mL
Human monocytes; LPS (10 ng/ml), CAP (1:1), stimulus alone 1.0
  TNF: 0.12 ng/mL
Human monocytes; LPS (10 ng/ml), CAP (1:10), stimulus alone 1.0
  TNF: 0.34 ng/mL
Human monocytes; LPS (10 ng/ml), CAP (1:100), stimulus alone 1.0
  TNF: 0.23 ng/mL
Human plasma
  inhibition of the prothrombin time (PT), in words: inhibited
